Results as given in US20240024509A1, “COMPOSITIONS AND METHODS FOR TREATING CEREBROSPINAL FLUID DISORDERS” (The Children's Medical Center Corporation, priority 2021, published 2024).

What was measured:
[1] = test system: choroid plexus (ChP) epithelial cells; assay: Calcium imaging of LV ChP explants exposed to plasma; assay type: cell-based, mouse; conditions: LV ChP explant, FoxJ1-Cre::GCaMP6f mice
Procedure: […] Imaging and analyses were performed as described (12). Plasma (using citrate as anti-coagulant instead of EDTA, same protocol as described above) was delivered to explants by topical application from a glass capillary needle and serum was delivered to the lateral ventricle of live mice during imaging through the injection cannula. Serum was prepared by collecting blood using the same approach as described above, incubating on ice for 30 min. and then centrifuging for 10 min. at 5,000 g twice to separate the supernatant.

[2] = test system: NKCC1; assay: LiCl ICV pretreatment in adult IVH model, ChP pNKCC1 immunoblot; assay type: in vivo, mouse; conditions: adult mice; ICV LiCl 50 mM, 5 μL, 30 min. prior to blood; after 48 hrs
Source text: P4: pups were anesthetized by hypothermia. An incision was made along the midline of the scalp to expose the skull. A 26 G needle was used to pierce the skull directly above the lateral ventricle. AAV solution or age-matched whole blood was delivered into the lateral ventricle through the piercing using glass capillary pipettes. The skin incision was closed with suture and Vetbond (3M, Minnesota). The pup was warmed and returned to cage after recovery. Whole blood was collected transcardially from littermates anesthetized by hypothermia. Adult: adult intracerebroventricular (ICV) injection followed similar procedures as P4 with the following exceptions: (1) adult mice were anesthetized using isoflurane; (2) a hand drill was used directly above the lateral ventricle; (3) blood donor was anesthetized using ketamine/xylazine.
Tissues were quickly dissected in cold HBSS and homogenized in RIPA buffer supplemented with protease and phosphatase inhibitors. The homogenate was centrifuged at maximum speed for 10 min. to remove cellular debris. Protein concentration was determined by BCA assay (Thermo Scientific 23227). Samples were denatured in 2% SDS supplemented with 2-Mercaptoethanol by heating at 37° C. for 5 min. […] Band intensity was quantified by FIJI.

[3] = test system: intraventricular hemorrhage (IVH) model; assay: E14.5 IVH model with calcium signaling disruption (LiCl pretreatment or EDTA), MRI and infusion test; assay type: in vivo, mouse
Source text: Timed pregnant mice (E14.5) were anesthetized with isoflurane and kept warm. Following laparotomy, AAV solution or age-matched whole blood was delivered into the lateral ventricle of each embryo (located visually) using glass capillary pipettes. The uterine horns were returned to the abdomen and the incisions sutured. When age-matched whole blood was used, the donor mouse was anesthetized with ketamine/xylazine and warmed. Fresh blood was obtained from the jugular veins with a glass capillary pipette and immediately delivered to the recipient.
Mice were imaged using Bruker BioSpec small animal MRI (7T) at P14 or P25 while under anesthesia by isoflurane. A warm pad was used to maintain body temperature. Breathing rate and heart rate were monitored to reflect the depth of anesthesia. All T2 images were acquired using the following criteria: TE/TR=60/4000; Ave=4; RARE=4; slice thickness=0.6 mm.
Constant aCSF infusion testing was performed as previously described (23). In summary, a single catheter was implanted into the lateral ventricle of a mouse under anesthesia. The catheter infused aCSF at a constant rate and monitored intracranial pressure (ICP). The Marmarou model of cerebrospinal fluid (CSF) dynamics for constant rate infusions were used to calculate parameters describing cerebrospinal fluid (CSF) dynamics by a non-linear least squares fit of the model to the intracranial pressure (ICP) data (62).

## O=C(O)CN(CCOCCOCCN(CC(=O)O)CC(=O)O)CC(=O)O [EGTA, ethylene glycol-bis(β-aminoethyl ether)-N,N,N′,N′-tetraacetic acid]
[1]
  epifluorescence calcium responses to plasma: disrupted

## [Cl-].[Li+] [LiCl, lithium chloride]
[2]
  NKCC1 phosphorylation rate (pNKCC1): decreased NKCC1 phosphorylation rate
[3]; E14.5, ICV LiCl 30 min. prior to blood, vs controls, MRI
  ventriculomegaly: more pronounced ventriculomegaly
[3]; E14.5, LiCl pretreatment plus blood
  ventricular enlargement in two extreme cases: over 200 fold
[3]; LiCl pretreatment alone
  baseline intracranial pressure (ICP): does not change
  compliance: does not change
[3]; LiCl treatment alone
  ventricle size: did not affect ventricle size
[3]; LiCl-Blood mice compared to LiCl-PBS mice
  intracranial pressure (ICP): unaltered
[1]
  epifluorescence calcium responses to plasma: disrupted

## O=C(O)CN(CC(=O)O)c1ccccc1OCCOc1ccccc1N(CC(=O)O)CC(=O)O [BAPTA]
[1]
  epifluorescence calcium responses to plasma: disrupted

## NCCOB(c1ccccc1)c1ccccc1 [2-APB, 2-aminoethoxydiphenyl borate]
[1]
  epifluorescence calcium responses to plasma: disrupted

## O=C(O)CN(CCN(CC(=O)O)CC(=O)O)CC(=O)O [EDTA, ethylenediaminetetraacetic acid]
[3]; E14.5, ICV injection of blood containing EDTA, 3 weeks after the injection
  ventriculomegaly: severe ventriculomegaly
[1]
  epifluorescence calcium responses to plasma: disrupted
